Source: the NIST ThermoML archive (doi:10.1021/je700699u)
Numbers after ± are expanded uncertainties.

Experiment: cn = amount concentration of the nth substance listed, in mol/dm3
Conditions: 101 kPa, Liquid

CNCC(=O)[O-].[K+] [potassium Salt of sarcosine] + O
Conditions | mass density, 298.15 K [kg/m3] | mass density, 303.15 K [kg/m3] | mass density, 313.15 K [kg/m3] | mass density, 323.15 K [kg/m3] | mass density, 333.15 K [kg/m3] | viscosity, 298.15 K [mPa·s] | viscosity, 303.15 K [mPa·s] | viscosity, 313.15 K [mPa·s] | viscosity, 323.15 K [mPa·s] | viscosity, 333.15 K [mPa·s]
c1 = 0.51 | 1024 ± 2 | 1023 ± 2 | 1019 ± 2 | 1015 ± 2 | 1010 ± 2 | 1.018 ± 0.032 | 0.913 ± 0.03 | 0.748 ± 0.025 | 0.627 ± 0.022 | 0.538 ± 0.019
c1 = 1.01 | 1051 ± 2 | 1049 ± 2 | 1045 ± 2 | 1041 ± 2 | 1036 ± 2 | – | – | – | – | –
c1 = 1.019 | – | – | – | – | – | 1.185 ± 0.037 | 1.06 ± 0.034 | 0.876 ± 0.028 | 0.759 ± 0.025 | 0.614 ± 0.021
c1 = 1.534 | 1077 ± 3 | 1074 ± 3 | 1070 ± 3 | 1065 ± 2 | 1060 ± 2 | 1.408 ± 0.043 | 1.252 ± 0.039 | 1.005 ± 0.032 | 0.833 ± 0.027 | 0.703 ± 0.024
c1 = 2.019 | 1103 ± 3 | 1100 ± 3 | 1096 ± 3 | 1091 ± 3 | 1085 ± 3 | 1.663 ± 0.05 | 1.466 ± 0.045 | 1.18 ± 0.037 | 0.968 ± 0.031 | 0.811 ± 0.027
c1 = 2.445 | 1124 ± 3 | 1121 ± 3 | 1117 ± 3 | 1111 ± 3 | 1106 ± 3 | 1.959 ± 0.059 | 1.707 ± 0.052 | 1.356 ± 0.042 | 1.098 ± 0.035 | 0.919 ± 0.03
c1 = 2.987 | 1150 ± 4 | 1148 ± 4 | 1143 ± 4 | 1138 ± 4 | 1132 ± 4 | 2.493 ± 0.074 | 2.185 ± 0.065 | 1.721 ± 0.052 | 1.395 ± 0.043 | 1.115 ± 0.035

CSCCC(N)C(=O)[O-].[K+] (stereo not drawn) [potassium salt of DL-methionine] + O
Conditions | mass density, 298.15 K [kg/m3] | mass density, 303.15 K [kg/m3] | mass density, 313.15 K [kg/m3] | mass density, 323.15 K [kg/m3] | mass density, 333.15 K [kg/m3] | viscosity, 298.15 K [mPa·s] | viscosity, 303.15 K [mPa·s] | viscosity, 313.15 K [mPa·s] | viscosity, 323.15 K [mPa·s] | viscosity, 333.15 K [mPa·s]
c1 = 0.252 | 1016 ± 2 | 1014 ± 2 | 1010 ± 2 | 1006 ± 1 | 1003 ± 1 | 0.987 ± 0.032 | 0.884 ± 0.029 | 0.722 ± 0.024 | 0.608 ± 0.021 | 0.519 ± 0.019
c1 = 0.503 | 1033 ± 2 | 1032 ± 2 | 1027 ± 2 | 1023 ± 2 | 1020 ± 2 | 1.109 ± 0.035 | 0.987 ± 0.032 | 0.806 ± 0.027 | 0.675 ± 0.023 | 0.575 ± 0.02
c1 = 0.732 | 1051 ± 2 | 1049 ± 2 | 1044 ± 2 | 1039 ± 2 | 1037 ± 2 | 1.263 ± 0.039 | 1.125 ± 0.035 | 0.909 ± 0.029 | 0.754 ± 0.025 | 0.64 ± 0.022
c1 = 0.994 | 1067 ± 2 | 1065 ± 2 | 1060 ± 2 | 1055 ± 2 | 1053 ± 2 | 1.425 ± 0.044 | 1.264 ± 0.039 | 1.019 ± 0.033 | 0.84 ± 0.028 | 0.708 ± 0.024
c1 = 1.252 | 1084 ± 3 | 1083 ± 3 | 1077 ± 3 | 1072 ± 3 | 1069 ± 3 | 1.654 ± 0.05 | 1.478 ± 0.045 | 1.161 ± 0.036 | 0.952 ± 0.031 | 0.799 ± 0.026
c1 = 1.479 | 1100 ± 3 | 1098 ± 3 | 1093 ± 3 | 1087 ± 3 | 1085 ± 3 | 1.883 ± 0.057 | 1.657 ± 0.05 | 1.316 ± 0.041 | 1.071 ± 0.034 | 0.893 ± 0.029
